Laboratory results published in PubChem BioAssay AID1963836 (Molecular Pharmacology Branch, DTP, NCI, 2024).

Tested on: 857933-349-R-J2-PDC complex spheroid viability
Assay: Anticancer human tumor 857933-349-R-J2-PDC patient-derived colon adenocarcinoma cell line growth inhibition [POLQ]
Conditions: for IC50: curve of first compound; for viability, T/C: stronger effect = lower value; active = viability on the fitted dose curve at most 10% of control; inactive = the rest
In short: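 Complex spheroid viability model combining PDC tumour cells with endothelial (HUVEC) and MSC stromal cells. Novobiocin, ART-558 or RP6685 were tested singly and in combination with standard and investigational anticancer drugs. Each was titrated in half-log steps from near clinical Cmax, or from 10 microM where Cmax was unknown.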
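Note: spheroids exposed to compounds for seven days before readout.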

CC(=O)O[C@H]1C(=O)[C@@]2(C)[C@H]([C@H](OC(=O)c3ccccc3)[C@]3(O)C[C@H](OC(=O)[C@H](O)[C@@H](NC(=O)c4ccccc4)c4ccccc4)C(C)=C1C3(C)C)[C@]1(OC(C)=O)CO[C@@H]1C[C@@H]2O + Nc1ccc(C#CCN(C(=O)Cc2ncc(C(F)(F)F)cc2C(F)(F)F)c2ccc(F)cc2)nn1
9.73 nM: IC50 (second compound 3.16 µM)
inactive: viability, T/C (second compound 0.0316 µM, first compound 0.00949 µM) 45% | viability, T/C (second compound 0.0316 µM, first compound 0.03 µM) 20.3% | viability, T/C (second compound 0.0316 µM, first compound 0.0949 µM) 13.2% | viability, T/C (second compound 0.0316 µM, first compound 0.3 µM) 10.6% | viability, T/C (second compound 0.0316 µM, first compound 0.949 µM) 12.3% | viability, T/C (second compound 0.0316 µM, first compound 3 µM) 15.7% | viability, T/C (second compound 0.1 µM, first compound 0.00949 µM) 45.8% | viability, T/C (second compound 0.1 µM, first compound 0.03 µM) 22.9% | viability, T/C (second compound 0.1 µM, first compound 0.0949 µM) 10.2% | viability, T/C (second compound 0.1 µM, first compound 0.3 µM) 15.6% | viability, T/C (second compound 0.1 µM, first compound 0.949 µM) 11.8% | viability, T/C (second compound 0.1 µM, first compound 3 µM) 15.2% | viability, T/C (second compound 0.316 µM, first compound 0.00949 µM) 58.1% | viability, T/C (second compound 0.316 µM, first compound 0.03 µM) 27.4% | viability, T/C (second compound 0.316 µM, first compound 0.0949 µM) 12.8% | viability, T/C (second compound 0.316 µM, first compound 0.3 µM) 14.9% | viability, T/C (second compound 0.316 µM, first compound 0.949 µM) 15.1% | viability, T/C (second compound 0.316 µM, first compound 3 µM) 17.1% | viability, T/C (second compound 1 µM, first compound 0.00949 µM) 54.5% | viability, T/C (second compound 1 µM, first compound 0.03 µM) 24.8% | viability, T/C (second compound 1 µM, first compound 0.0949 µM) 14.6% | viability, T/C (second compound 1 µM, first compound 0.3 µM) 14% | viability, T/C (second compound 1 µM, first compound 0.949 µM) 17.4% | viability, T/C (second compound 1 µM, first compound 3 µM) 14.8% | viability, T/C (second compound 3.16 µM, first compound 0.00949 µM) 50.6% | viability, T/C (second compound 3.16 µM, first compound 0.03 µM) 20.1% | viability, T/C (second compound 3.16 µM, first compound 0.0949 µM) 16.1% | viability, T/C (second compound 3.16 µM, first compound 0.3 µM) 11.7% | viability, T/C (second compound 3.16 µM, first compound 0.949 µM) 17.3% | viability, T/C (second compound 3.16 µM, first compound 3 µM) 18.6% | viability, T/C (second compound 10 µM, first compound 0.00949 µM) 54.2% | viability, T/C (second compound 10 µM, first compound 0.03 µM) 26.5% | viability, T/C (second compound 10 µM, first compound 0.0949 µM) 16.8% | viability, T/C (second compound 10 µM, first compound 0.3 µM) 14.9% | viability, T/C (second compound 10 µM, first compound 0.949 µM) 14.5% | viability, T/C (second compound 10 µM, first compound 3 µM) 20.3%
11.3 nM: IC50 (second compound 10 µM)
11.2 nM: IC50 (second compound 1 µM)
12.8 nM: IC50 (second compound 0.316 µM)
< 9.49 nM: IC50 (second compound 0.0316 µM) | IC50 (second compound 0.1 µM)

COc1cccc2c1C(=O)c1c(O)c3c(c(O)c1C2=O)CC(O)(C(=O)CO)CC3OC1CC(N)C(O)C(C)O1 (centres undefined) + Nc1ccc(C#CCN(C(=O)Cc2ncc(C(F)(F)F)cc2C(F)(F)F)c2ccc(F)cc2)nn1
220 nM: IC50 (second compound 0.0316 µM)
212 nM: IC50 (second compound 0.1 µM)
234 nM: IC50 (second compound 0.316 µM)
inactive: viability, T/C (second compound 0.0316 µM, first compound 0.0316 µM) 74.9% | viability, T/C (second compound 0.0316 µM, first compound 0.1 µM) 63% | viability, T/C (second compound 0.0316 µM, first compound 0.316 µM) 43.9% | viability, T/C (second compound 0.1 µM, first compound 0.0316 µM) 74.3% | viability, T/C (second compound 0.1 µM, first compound 0.1 µM) 67.1% | viability, T/C (second compound 0.1 µM, first compound 0.316 µM) 40.7% | viability, T/C (second compound 0.316 µM, first compound 0.0316 µM) 65% | viability, T/C (second compound 0.316 µM, first compound 0.1 µM) 85.6% | viability, T/C (second compound 0.316 µM, first compound 0.316 µM) 41.1% | viability, T/C (second compound 1 µM, first compound 0.0316 µM) 83% | viability, T/C (second compound 1 µM, first compound 0.1 µM) 75.7% | viability, T/C (second compound 1 µM, first compound 0.316 µM) 36.9% | viability, T/C (second compound 3.16 µM, first compound 0.0316 µM) 72.5% | viability, T/C (second compound 3.16 µM, first compound 0.1 µM) 60.4% | viability, T/C (second compound 3.16 µM, first compound 0.316 µM) 37.9% | viability, T/C (second compound 10 µM, first compound 0.0316 µM) 66.9% | viability, T/C (second compound 10 µM, first compound 0.1 µM) 63% | viability, T/C (second compound 10 µM, first compound 0.316 µM) 26.8%
active: viability, T/C (second compound 0.0316 µM, first compound 1 µM) 5.65% | viability, T/C (second compound 0.0316 µM, first compound 3.16 µM) 0.31% | viability, T/C (second compound 0.0316 µM, first compound 10 µM) 0.26% | viability, T/C (second compound 0.1 µM, first compound 1 µM) 5.86% | viability, T/C (second compound 0.1 µM, first compound 3.16 µM) 0.25% | viability, T/C (second compound 0.1 µM, first compound 10 µM) 0.17% | viability, T/C (second compound 0.316 µM, first compound 1 µM) 5.61% | viability, T/C (second compound 0.316 µM, first compound 3.16 µM) 0.2% | viability, T/C (second compound 0.316 µM, first compound 10 µM) 0.19% | viability, T/C (second compound 1 µM, first compound 1 µM) 9.45% | viability, T/C (second compound 1 µM, first compound 3.16 µM) 0.22% | viability, T/C (second compound 1 µM, first compound 10 µM) 0.23% | viability, T/C (second compound 3.16 µM, first compound 1 µM) 5.43% | viability, T/C (second compound 3.16 µM, first compound 3.16 µM) 0.39% | viability, T/C (second compound 3.16 µM, first compound 10 µM) 0.28% | viability, T/C (second compound 10 µM, first compound 1 µM) 6.24% | viability, T/C (second compound 10 µM, first compound 3.16 µM) 0.35% | viability, T/C (second compound 10 µM, first compound 10 µM) 0.32%
216 nM: IC50 (second compound 1 µM)
175 nM: IC50 (second compound 3.16 µM)
149 nM: IC50 (second compound 10 µM)
